Reference: patent US20090181986A1, “SUBSTITUTED HETEROCYCLIC COMPOUNDS” (priority 2007, published 2009)

Legend:
[1] = molecular target: T1, wild-type human cardiac sodium channel, hNav1.5 (Homo sapiens, UniProt Q14524); test: Late INa screening assay (PatchXpress whole cell patch clamp, late current generated with Tefluthrin or ATX II); assay type: cell-based; conditions: for effect on late sodium current: late INa assay, compounds tested at 10 μM; for inhibition at 10 µM / Late INa % blk: test compound at 10 μM; for inhibition at 10 µM: read-out: Late INa % blk
T1 sequence (Q14524 whole entry): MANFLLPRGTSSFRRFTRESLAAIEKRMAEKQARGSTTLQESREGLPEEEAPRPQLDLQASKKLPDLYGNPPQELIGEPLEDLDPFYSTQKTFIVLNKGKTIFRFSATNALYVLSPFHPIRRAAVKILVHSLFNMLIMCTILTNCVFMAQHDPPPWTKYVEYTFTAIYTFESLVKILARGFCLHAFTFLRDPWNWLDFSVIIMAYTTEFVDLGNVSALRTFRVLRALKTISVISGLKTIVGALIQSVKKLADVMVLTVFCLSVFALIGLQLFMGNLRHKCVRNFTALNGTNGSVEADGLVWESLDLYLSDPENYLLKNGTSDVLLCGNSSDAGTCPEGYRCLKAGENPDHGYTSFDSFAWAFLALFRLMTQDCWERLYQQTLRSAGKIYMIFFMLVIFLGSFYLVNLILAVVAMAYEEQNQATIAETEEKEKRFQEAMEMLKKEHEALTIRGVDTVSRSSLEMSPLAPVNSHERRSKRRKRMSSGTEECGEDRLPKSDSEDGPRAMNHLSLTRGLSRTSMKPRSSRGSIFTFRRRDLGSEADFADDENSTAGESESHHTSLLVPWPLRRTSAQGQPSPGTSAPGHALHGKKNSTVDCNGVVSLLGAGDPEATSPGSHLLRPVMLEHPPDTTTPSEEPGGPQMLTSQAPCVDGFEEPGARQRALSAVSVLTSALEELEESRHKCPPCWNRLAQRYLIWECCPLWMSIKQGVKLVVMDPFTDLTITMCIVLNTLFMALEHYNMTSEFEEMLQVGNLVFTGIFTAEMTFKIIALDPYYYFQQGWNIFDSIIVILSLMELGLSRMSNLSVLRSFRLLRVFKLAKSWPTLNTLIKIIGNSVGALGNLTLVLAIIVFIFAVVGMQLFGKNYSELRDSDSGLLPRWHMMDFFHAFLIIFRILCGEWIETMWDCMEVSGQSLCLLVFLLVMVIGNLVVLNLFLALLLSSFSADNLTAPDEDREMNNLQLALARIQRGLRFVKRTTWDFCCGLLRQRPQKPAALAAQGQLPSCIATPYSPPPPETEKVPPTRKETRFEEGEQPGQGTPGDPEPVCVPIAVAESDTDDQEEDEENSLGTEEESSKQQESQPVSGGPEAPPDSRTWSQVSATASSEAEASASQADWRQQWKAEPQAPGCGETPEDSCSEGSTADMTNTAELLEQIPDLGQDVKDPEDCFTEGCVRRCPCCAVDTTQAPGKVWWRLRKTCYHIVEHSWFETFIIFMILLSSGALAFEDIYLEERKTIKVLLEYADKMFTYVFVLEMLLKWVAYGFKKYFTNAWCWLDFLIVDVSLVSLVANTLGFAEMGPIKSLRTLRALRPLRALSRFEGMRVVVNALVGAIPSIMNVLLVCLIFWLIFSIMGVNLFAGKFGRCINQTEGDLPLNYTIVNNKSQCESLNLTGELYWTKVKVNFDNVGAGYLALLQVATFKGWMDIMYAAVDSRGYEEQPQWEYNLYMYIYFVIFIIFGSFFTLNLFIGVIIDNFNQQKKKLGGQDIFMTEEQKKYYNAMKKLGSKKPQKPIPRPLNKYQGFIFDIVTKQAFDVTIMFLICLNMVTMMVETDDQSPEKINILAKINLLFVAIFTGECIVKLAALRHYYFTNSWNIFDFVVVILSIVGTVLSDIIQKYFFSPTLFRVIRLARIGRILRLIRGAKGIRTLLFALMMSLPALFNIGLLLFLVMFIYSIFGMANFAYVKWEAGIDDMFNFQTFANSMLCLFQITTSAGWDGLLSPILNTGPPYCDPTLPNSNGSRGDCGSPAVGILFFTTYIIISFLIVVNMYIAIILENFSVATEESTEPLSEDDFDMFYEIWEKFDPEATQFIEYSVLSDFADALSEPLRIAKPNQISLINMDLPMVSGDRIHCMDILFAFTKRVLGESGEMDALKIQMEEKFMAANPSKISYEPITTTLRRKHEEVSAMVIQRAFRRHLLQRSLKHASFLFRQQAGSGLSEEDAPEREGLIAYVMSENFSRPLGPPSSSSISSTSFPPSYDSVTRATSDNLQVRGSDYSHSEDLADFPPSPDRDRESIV
Description: (§1) The late sodium current (Late INa) and peak sodium current (Peak INa) assays are performed on an automated electrophysiology platform, PatchXpress 7000A (MDS Analytical Technologies, Sunnyvale, Calif.), which uses the whole cell patch clump technique to measure currents through the cell membrane of up to 16 cells at a time. The assay uses an HEK293 (human embryonic kidney) cell line heterologously expressing the wild-type human cardiac sodium channel, hNav1.5, purchased from Millipore (Billerica, Mass.). No beta subunits were coexpressed with the Na channel alpha subunit. […] Experiments are carried out at 24-27° C.
(§2) For both the Late INa and Peak INa assays, series resistance compensation is set to 50% and whole-cell compensation is performed automatically. […] Currents through open sodium channels are automatically recorded and stored in the DataXpress2 database (MDS Analytical Technologies, Sunnyvale, Calif.). Analysis is performed using DataXpress2 analysis software and data are compiled in Excel.
Compound stocks are routinely made in glass vials to 10 mM in dimethyl sulfoxide (DMSO). In some cases, when compounds are not soluble in DMSO, they are made in 100% ethanol. Stocks are sonicated as necessary. The extracellular solution for screening Late INa is composed of: 140 mM NaCl, 4 mM KCl, 1.8 mM CaCl2, 0.75 mM MgCl2, and 5 mM HEPES with pH adjusted to 7.4 using NaOH. The extracellular solution for screening Peak INa is composed of: 20 mM NaCl, 120 mM N-methyl-D glucamine, 4 mM KCl, 1.8 mM CaCl2, 0.75 mM MgCl2, and 5 mM HEPES with pH adjusted to 7.4 using HCl. The intracellular solution used to perfuse the inside of the cells for both the Late INa and Peak INa assays contains: 120 mM CsF, […], 5 mM EGTA, 5 mM HEPES and pH adjusted to 7.4 with CsOH. […] The ONa extracellular solution used at the end of each experiment for the Late INa and Peak INa assays to measure baseline current contains: 140 mM N-methyl-D-glucamine; 4 mM KCl; 1.8 mM CaCl2; 0.75 mM MgCl2; 5 mM HEPES and pH was adjusted to 7.4 with HCl.
For the Late INa assay, sodium channels are activated every 10 seconds (0.1 Hz) by depolarizing the cell membrane to −20 mV for 250 milliseconds (ms) from a holding potential of −120 mV.
All compounds are tested to determine their activity in blocking the late sodium current. Late INa current is generated by adding 10 μM Tefluthrin (pyrethroid) to the extracellular solution while recording Na currents. […] For some experiments, 50 nM ATX II (sea anemone toxin), another late INa activator, was used to generate the late component. […] Baseline current in the absence of Na^+ ions is measured at the end of each experiment (after two additions of 0 Na solution—see above) and is used to calculate the percent block by compound.

L-type calcium channel = L-type calcium channel activity well-plate assay (IMR-32 cells, Ca-4 dye, FlexStation); assay type: cell-based, human
Method in brief: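 IMR-32 human neuroblastoma cells seeded overnight at 200,000 cells/well, loaded 1 h at 37° with Ca-4 dye in HBSS/20 mM HEPES pH 7.4 with 2 mM probenecid.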

hERG potassium channel = hERG potassium channel (Homo sapiens, UniProt Q12809); test: hERG screening assay (PatchXpress patch clamp, CHO cells)
hERG potassium channel, sequence (Q12809 whole entry): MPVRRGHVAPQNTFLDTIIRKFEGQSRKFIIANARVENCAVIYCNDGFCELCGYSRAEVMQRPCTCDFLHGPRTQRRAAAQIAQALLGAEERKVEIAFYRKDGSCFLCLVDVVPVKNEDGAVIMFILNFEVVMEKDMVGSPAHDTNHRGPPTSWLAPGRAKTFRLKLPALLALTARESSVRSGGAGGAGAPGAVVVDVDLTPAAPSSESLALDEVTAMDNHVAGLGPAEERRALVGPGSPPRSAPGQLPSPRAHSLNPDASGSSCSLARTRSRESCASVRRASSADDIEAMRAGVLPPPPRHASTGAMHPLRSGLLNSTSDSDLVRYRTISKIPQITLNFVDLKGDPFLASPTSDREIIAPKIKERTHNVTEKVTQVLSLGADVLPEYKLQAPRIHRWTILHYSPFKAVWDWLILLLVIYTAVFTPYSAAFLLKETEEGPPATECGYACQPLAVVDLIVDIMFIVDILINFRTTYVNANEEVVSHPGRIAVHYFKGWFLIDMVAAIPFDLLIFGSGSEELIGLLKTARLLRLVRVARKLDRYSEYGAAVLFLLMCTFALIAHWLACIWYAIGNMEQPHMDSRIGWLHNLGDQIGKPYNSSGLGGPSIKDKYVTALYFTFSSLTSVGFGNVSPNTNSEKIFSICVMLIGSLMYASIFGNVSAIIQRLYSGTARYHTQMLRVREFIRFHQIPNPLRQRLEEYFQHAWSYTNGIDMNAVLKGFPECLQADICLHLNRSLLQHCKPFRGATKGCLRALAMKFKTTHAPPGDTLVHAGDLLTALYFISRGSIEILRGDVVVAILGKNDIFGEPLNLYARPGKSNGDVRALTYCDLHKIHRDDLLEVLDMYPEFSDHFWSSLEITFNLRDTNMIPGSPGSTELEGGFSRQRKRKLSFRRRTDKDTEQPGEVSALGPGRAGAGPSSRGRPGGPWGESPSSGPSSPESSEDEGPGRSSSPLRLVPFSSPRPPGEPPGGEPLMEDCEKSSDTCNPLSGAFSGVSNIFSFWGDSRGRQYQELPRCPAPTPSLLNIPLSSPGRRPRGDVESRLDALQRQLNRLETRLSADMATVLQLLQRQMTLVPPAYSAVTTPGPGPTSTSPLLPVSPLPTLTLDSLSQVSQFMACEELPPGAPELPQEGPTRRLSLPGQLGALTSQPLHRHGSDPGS

[2] = molecular target: T1, wild-type human cardiac sodium channel, hNav1.5; test: Peak INa screening assay (tonic block and use-dependent block); assay type: cell-based; conditions: test compound at 10 μM
Description: as §1, §2
Compound stocks are routinely made in glass vials to 10 mM in dimethyl sulfoxide (DMSO). In some cases, when compounds are not soluble in DMSO, they are made in 100% ethanol. Stocks are sonicated as necessary. The extracellular solution for screening Late INa is composed of: 140 mM NaCl, 4 mM KCl, 1.8 mM CaCl2, 0.75 mM MgCl2, and 5 mM HEPES with pH adjusted to 7.4 using NaOH. The extracellular solution for screening Peak INa is composed of: 20 mM NaCl, 120 mM N-methyl-D glucamine, 4 mM KCl, 1.8 mM CaCl2, 0.75 mM MgCl2, and 5 mM HEPES with pH adjusted to 7.4 using HCl. The intracellular solution used to perfuse the inside of the cells for both the Late INa and Peak INa assays contains: 120 mM CsF, […], 5 mM EGTA, 5 mM HEPES and pH adjusted to 7.4 with CsOH. Compounds are diluted in extracellular solution to […] in glass vials and then transferred to glass well plates before robotic addition to the cells. The ONa extracellular solution used at the end of each experiment for the Late INa and Peak INa assays to measure baseline current contains: 140 mM N-methyl-D-glucamine; 4 mM KCl; 1.8 mM CaCl2; 0.75 mM MgCl2; 5 mM HEPES and pH was adjusted to 7.4 with HCl.
Compounds were also evaluated for their effect in several other assays, including their effect on Peak INa. In some cases, the effect on Peak INa was measured using data from the Late INa assay. […] Since the peak INa can be very large, introducing artifacts in the recording, the concentration of Na^+ in the bath is reduced to 20 mM and a nonpermeant cation is added to compensate for the Na^+ that was omitted from the standard extracellular solution (see above). The peak INa assay uses a holding potential of −100 mV and a 20 ms test pulse to 0 mV to activate the channel. As in the Late INa assay, stepping the voltage to 0 mV causes a rapid increase in negative Na current through hNav1.5 that inactivates within a few ms. No late INa activator is added for the peak assay.
For the separate peak INa assay, both tonic (TB) block and use-dependent (UDB) block of peak inward sodium current by 10 μM compound are determined. TB is block of the channel in the resting state, before the channel opens. TB is simulated in this assay by stimulating the channel to open at a low frequency (0.1 Hz). This is done in order to measure the control current amplitude and monitor current rundown, enabling correction for rundown in the calculation of percent block for TB.

[3] = tonic block, read-out: Tonic Peak INa % blk
[4] = use-dependent block, read-out: UDB Peak INa % blk

## CC1=C(C(=O)N2CCN(c3ccccc3)CC2)C(c2ccc3ccccc3c2)C2=C(CCCC2=O)N1 (centres unmarked) [PT-165, 2-methyl-4-(naphthalen-2-yl)-3-(4-phenylpiperazine-1-carbonyl)-4,6,7,8-tetrahydroquinolin-5(1H)-one]
[1]
  effect on late sodium current: potentiated late sodium current
L-type calcium channel
  CaL Plate Assay % blk (1 μM test cmpd): 0%
  CaL Plate Assay % blk (10 μM test cmpd): 2%
hERG potassium channel
  hERG Patch Clamp hERG % blk (1 μM test cmpd): 30.5%
  hERG Patch Clamp hERG % blk (10 μM test cmpd): 64.5%

## CC1=C(C(=O)OCc2ccccc2)C(c2ccccc2-c2ccc(NS(C)(=O)=O)cc2)c2cn[nH]c2N1 (centres unmarked) [PT-366, benzyl 6-methyl-4-(4′-(methylsulfonamido)biphenyl-2-yl)-4,7-dihydro-1H-pyrazolo[3,4-b]pyridine-5-carboxylate]
[2]; [3]
  inhibition at 10 µM: 20%
[2]; [4]
  inhibition at 10 µM: 4.6%
hERG potassium channel
  hERG Patch Clamp hERG % blk (1 μM test cmpd): 28%
  hERG Patch Clamp hERG % blk (10 μM test cmpd): 92%

## CC1=C(C(=O)OCc2ccccc2)[C@@H](c2ccccc2-c2ccc(C)o2)n2nnnc2N1 [PT-235, (R)-benzyl 5-methyl-7-(2-(5-methylfuran-2-yl)phenyl)-4,7-dihydrotetrazolo[1,5-a]pyrimidine-6-carboxylate]
[2]; [3]
  inhibition at 10 µM: 8.8%
[2]; [4]
  inhibition at 10 µM: 4.5%
hERG potassium channel
  hERG Patch Clamp hERG % blk (1 μM test cmpd): 10%
  hERG Patch Clamp hERG % blk (10 μM test cmpd): 41.5%

## CC1=C(C(=O)OCc2ccccc2)C(c2sccc2Br)n2nnnc2N1 (centres unmarked) [PT-401, benzyl 7-(3-bromothiophen-2-yl)-5-methyl-4,7-dihydrotetrazolo[1,5-a]pyrimidine-6-carboxylate]
[2]; [3]
  inhibition at 10 µM: 34.6%
[2]; [4]
  inhibition at 10 µM: 4.8%

## CC1=C(C(=O)OCc2ccc(C(F)(F)F)cc2)C(c2cccc3ccccc23)n2nnnc2N1 (centres unmarked) [PT-051, 4-(trifluoromethyl)benzyl 5-methyl-7-(naphthalen-1-yl)-4,7-dihydrotetrazolo[1,5-a]pyrimidine-6-carboxylate]
[1]
  inhibition at 10 µM: 16.9%

## CC1=C(C(=O)OCc2ccccc2)C(c2ccccc2-c2ccc(NS(C)(=O)=O)cc2)n2nnnc2N1 (centres unmarked) [PT-530, benzyl 5-methyl-7-(4′-(methylsulfonamido)biphenyl-2-yl)-4,7-dihydrotetrazolo[1,5-a]pyrimidine-6-carboxylate]
[1]
  inhibition at 10 µM: 88.3%
hERG potassium channel
  hERG Patch Clamp hERG % blk (1 μM test cmpd): 13%
  hERG Patch Clamp hERG % blk (10 μM test cmpd): 48%

## CC1=C(C(=O)O[C@@H](C)c2ccccc2)C(c2cc3ccccc3s2)n2nnnc2N1 (stereo partly drawn) [PT-057, (S)-1-phenylethyl 7-(benzo[b]thiophen-2-yl)-5-methyl-4,7-dihydrotetrazolo[1,5-a]pyrimidine-6-carboxylate]
[1]
  inhibition at 10 µM: 71%

## CC1=C(C(=O)N2CCN(c3ccccc3)CC2)C(c2ccsc2)C2=C(CCCC2=O)N1 (centres unmarked) [PT-166, 2-methyl-3-(4-phenylpiperazine-1-carbonyl)-4-(thiophen-3-yl)-4,6,7,8-tetrahydroquinolin-5(1H)-one]
[1]
  effect on late sodium current: potentiated late sodium current

## CC1=C(C(=O)N2CCC(c3ccccc3)CC2)C(c2ccsc2)C2=C(CCCC2=O)N1 (centres unmarked) [PT-163, 2-methyl-3-(4-phenylpiperidine-1-carbonyl)-4-(thiophen-3-yl)-4,6,7,8-tetrahydroquinolin-5(1H)-one]
[1]
  effect on late sodium current: potentiated late sodium current
L-type calcium channel
  CaL Plate Assay % blk (1 μM test cmpd): 5%
  CaL Plate Assay % blk (10 μM test cmpd): 17%
hERG potassium channel
  hERG Patch Clamp hERG % blk (1 μM test cmpd): 15%
  hERG Patch Clamp hERG % blk (10 μM test cmpd): 53.5%

## H-indol-5-yl)phenyl)-5-methyl-4,7-dihydrotetrazolo[1,5-a]pyrimidine-6-carboxylate [PT-505]
[1]
  Late INa % blk: 69.6%

## CCOC(=O)C1=C(C)NC(C)=C(C(=O)OCC)C1c1ccc2c(c1)OCCO2 [PT-109, diethyl 4-(2,3-dihydrobenzo[b][1,4]dioxin-6-yl)-2,6-dimethyl-1,4-dihydropyridine-3,5-dicarboxylate]
[1]
  inhibition at 10 µM: 76.5%
L-type calcium channel
  CaL Plate Assay % blk (1 μM test cmpd): 4%
  CaL Plate Assay % blk (10 μM test cmpd): 53%
hERG potassium channel
  hERG Patch Clamp hERG % blk (1 μM test cmpd): 16%
  hERG Patch Clamp hERG % blk (10 μM test cmpd): 38.5%

## H-furo[3,4-e]pyrazolo[3,4-b]pyridin-5(4H)-one [PT-079]
[1]
  Late INa % blk: 49%
hERG potassium channel
  hERG Patch Clamp hERG % blk (1 μM test cmpd): 57.5%
  hERG Patch Clamp hERG % blk (10 μM test cmpd): 96.5%

## CC1=C(C(=O)OCc2ccccc2)C(c2cccc3ccccc23)n2nnnc2N1Cc1nnn[nH]1 (centres unmarked) [PT-326, benzyl 4-((1H-tetrazol-5-yl)methyl)-5-methyl-7-(naphthalen-1-yl)-4,7-dihydrotetrazolo[1,5-a]pyrimidine-6-carboxylate]
[2]; [3]
  inhibition at 10 µM: 32.2%
[2]; [4]
  inhibition at 10 µM: 11.6%

## CCOC(=O)C1=C(C)Nc2nnnn2C1c1ccccc1I (centres unmarked) [PT-492, ethyl 7-(2-iodophenyl)-5-methyl-4,7-dihydrotetrazolo[1,5-a]pyrimidine-6-carboxylate]
[2]; [3]
  inhibition at 10 µM: 20.6%
[2]; [4]
  inhibition at 10 µM: 4.8%

## CC1=C(C(=O)O[C@@H](C)c2ccccc2)C(c2cc3ccccc3o2)n2nnnc2N1 (stereo partly drawn) [PT-059, (S)-1-phenylethyl 7-(benzofuran-2-yl)-5-methyl-4,7-dihydrotetrazolo[1,5-a]pyrimidine-6-carboxylate]
[1]
  Late INa % blk: 57.7%
hERG potassium channel
  hERG Patch Clamp hERG % blk (1 μM test cmpd): 10%
  hERG Patch Clamp hERG % blk (10 μM test cmpd): 66.5%

## CC1=C(C(=O)OCCc2nnn[nH]2)C(c2cccc3ccccc23)n2nnnc2N1 (centres unmarked) [PT-247, 2-(1H-tetrazol-5-yl)ethyl 5-methyl-7-(naphthalen-1-yl)-4,7-dihydrotetrazolo[1,5-a]pyrimidine-6-carboxylate]
[1]
  inhibition at 10 µM: 0.3%

## COC(=O)C1=C(C)N(CC(=O)O)c2nnnn2C1c1sc2ccccc2c1Br (centres unmarked) [PT-533, 2-(7-(3-bromobenzo[b]thiopben-2-yl)-6-(methoxycarbonyl)-5-methyltetrazolo[1,5-a]pyrimidin-4(7H)-yl)acetic acid]
[1]
  Late INa % blk: 12%
